We go through 1 compound from patent publication US6472391B2, “Nitrogen-containing heterocyclic compounds” (Millennium Pharmaceuticals, Inc., priority 1996, dated 2002).

One data set concerns Wistar-Kyoto rats. In words: Mesangial proliferative glomerulonephritis model (anti-Thy-1.1 antibody OX-7). The data set is classed as in vivo, rat. The following applies: per glomerulus, 7th day after OX-7; twice a day for 7 days; normal 1.8 +/− 0.3, solvent-administered 8.7 +/− 0.4. The procedure: Test Example 5 Activity on a Mesangial Proliferative Glomerulonephritis Model
Anti-rat Thy-1.1 monoclonal antibody OX-7 (Cedarlane) was administered to male Wistar-Kyoto rats (Charles River Japan, 160 g, 6 animals/group) in an amount of 1.0 mg/kg by intravenous administration through the tail vein. A test compound was suspended in a 0.5% solution of methylcellulose and the resulting suspension was administered to each of the rats twice a day for a period of 7 days starting on the day before the administration of OX-7. On the 7th day after the OX-7 administration, when mesangial cell growth and extracellular matrix hypertrophy became prominent, the left kidney of each rat was extirpated, fixed with 20% buffered formalin for 6 hours and wrapped in paraffin, followed by slicing. The obtained pieces were subjected to immune tissue staining using antibody Pd10 (DAKO) against a proliferative cell nuclear antigen. After comparative staining with Methyl Green staining solution using diaminobenzidine as a color developer, the paraffin sections were enclosed. Half of the glomeruli in a kidney piece were observed and the number of the cells in one glomerulus which were positive to the proliferative cell nuclear antigen was calculated. The test for the significance of difference was carried out by the Wilcoxon test.

Each structure is given as a SMILES string.

`COc1cc2ncnc(N3CCN(C(=S)NCc4ccc5c(c4)OCO5)CC3)c2cc1OC` [Compound 208, 4-(6,7-dimethoxy-4-quinazolinyl)-N-(3,4-methylenedioxybenzyl)-1-piperazinethiocarboxamide] gave a melting point of 113 to 114 °C. In addition, the “Number of cells which are positive to intranuclear antigen of proliferative cells” value with Wistar-Kyoto rats is 6.1 +/− 0.9.
